Where two headings read alike, the source gives them in different places. Positions of bridges follow the written chain, without caps; N, C: chain ends. Non-standard residues stand in square brackets, D forms with d. Residues, ends and D or L forms follow the SMILES beside them. ξ: configuration not given here. Bta = N[C@@H](Cc1csc2ccccc12)C(=O)O; Hyp = O=C(O)[C@@H]1C[C@@H](O)CN1; NMeNle = CCCC[C@H](NC)C(=O)O; NMeA = CN[C@@H](C)C(=O)O; Dab = NCC[C@H](N)C(=O)O; Dap = NC[C@H](N)C(=O)O; ξC = NC(CS)C(=O)O
How the values were obtained:
[1] = biological target: T1, LK35.2-hPD-L1 cells / PE-labeled PD-1-Ig (Homo sapiens, UniProt Q9NZQ7); test: LK35.2-hPD-L1 cell binding high-content screening assay; format: cell-based
T1 construct: expressed in transfected cells; host or cells: LK35.2 mouse B cell line
Procedure, shortened: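 Fluorescent PD-1-Ig binding to PD-L1-expressing LK35.2 cells, imaged after washing. Conditions: 1 nM PE-PD-1-Ig, 37 °C, 1 h, RPMI with 10% fetal calf serum.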

CMV-specific T cells = CMV-specific T cells (Homo sapiens, UniProt Q9NZQ7); test: CMV-specific T cell function assay (IFNγ secretion, ELISA); format: cell-based
Experimental: CMV-specific T Cell Function Assay. […] AIM-V medium (Life Technologies, Grand Island, N.Y.) supplemented with 10% heat-inactivated fetal bovine serum (FBS, Sigma, St Louis, Mo.) was used at a total volume of 200 µL/well in triplicate. The cells were cultured for 4 days at 37° C., 5% CO2 at which time culture supernatant was harvested for determination of secreted IFNγ by ELISA (OptEIA hIFNγ ELISA Kit, BD Biosciences, San Jose, Calif.).

Human PD-L1/PD-1 = biological target: T2, Human PD-L1/PD-1 (Homo sapiens, UniProt Q9NZQ7); test: HTRF PD-1-Ig/PD-L1-His binding assay (human PD-L1)
T2 construct: made in house; host or cells: HEK293T
Procedure, shortened: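 Steps: truncated PD-1-Ig and PD-L1-His fusions are incubated in dPBS containing 0.1% (w/v) BSA and 0.05% (v/v) Tween-20. Detection antibodies are then added (Eu cryptate anti-Ig at 1 nM final, APC anti-His at 20 nM final), and time-resolved FRET is measured.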

[2] = cell binding assay, cell line not given, numeric value, read-out: CBA IC50 values
[3] = numeric value, read-out: CMV Recall EC50 values
[4] = numeric value, read-out: HTRF IC50 values
[5] = cell binding assay, cell line not given, value given instead of cluster, read-out: CBA IC50 value
[6] = value given instead of cluster, read-out: CMV Recall EC50 value
[7] = value given instead of cluster, read-out: HTRF IC50 value

CMV-specific T cells, sequence (Q9NZQ7 19-290): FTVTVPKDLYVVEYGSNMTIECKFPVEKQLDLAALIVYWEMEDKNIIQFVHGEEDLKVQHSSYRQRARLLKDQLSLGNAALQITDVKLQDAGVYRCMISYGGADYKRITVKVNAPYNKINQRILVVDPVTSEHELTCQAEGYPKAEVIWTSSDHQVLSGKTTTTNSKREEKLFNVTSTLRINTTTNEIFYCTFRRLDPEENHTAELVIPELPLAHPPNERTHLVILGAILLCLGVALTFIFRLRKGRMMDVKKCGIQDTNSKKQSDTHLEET
T1 sequence (Q9NZQ7 19-290): as above
T2 sequence (Q9NZQ7 with tags, fused parts or gaps): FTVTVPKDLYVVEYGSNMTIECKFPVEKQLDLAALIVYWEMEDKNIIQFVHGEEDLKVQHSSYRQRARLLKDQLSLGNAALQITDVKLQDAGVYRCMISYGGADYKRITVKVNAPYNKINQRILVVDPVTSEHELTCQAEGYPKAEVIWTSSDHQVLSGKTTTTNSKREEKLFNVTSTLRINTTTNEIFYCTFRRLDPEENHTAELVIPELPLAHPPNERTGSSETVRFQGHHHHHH

IC50 [1, 2] [nM]	EC50 (CMV-specific T cells; [3]) [nM]	IC50 (Human PD-L1/PD-1; [4]) [nM]	IC50 [1, 5] [nM]	EC50 (CMV-specific T cells; [6]) [nM]	IC50 (Human PD-L1/PD-1; [7]) [nM]	other results	SMILES
2.05	249	0.385					CCCC[C@H]1C(=O)N(C)[C@@H](CCCC)C(=O)N[C@@H](CCCNC(=N)N)C(=O)NC(C(=O)NCC(N)=O)CSCC(=O)N[C@@H](Cc2ccc(O)cc2)C(=O)N(C)[C@@H](C)C(=O)N[C@@H](CC(N)=O)C(=O)N2CCC[C@H]2C(=O)N[C@@H](Cc2cnc[nH]2)C(=O)N[C@@H](CO)C(=O)N2CCC[C@H]2C(=O)N[C@@H](Cc2c[nH]c3ccccc23)C(=O)N[C@@H](CO)C(=O)N[C@@H](Cc2csc3ccccc23)C(=O)N1C (stereo partly drawn) [Example 9068] ({CH2CO}-Y[NMeA]NPHSPWS[Bta][NMeNle][NMeNle]R[ξC]G-NH2; thioether N-14)
0.643	39.4	7.15					CCCC[C@H]1C(=O)N(C)[C@@H](CCCC)C(=O)N[C@@H](CCCNC(=N)N)C(=O)NC(C(=O)N[C@@H](CO)C(N)=O)CSCC(=O)N[C@@H](Cc2ccc(O)cc2)C(=O)N(C)[C@@H](C)C(=O)N[C@@H](CC(N)=O)C(=O)N2CCC[C@H]2C(=O)N[C@@H](Cc2cnc[nH]2)C(=O)N[C@@H](CC(C)C)C(=O)N2CCC[C@H]2C(=O)N[C@@H](Cc2c[nH]c3ccccc23)C(=O)N[C@@H](CO)C(=O)N[C@@H](Cc2csc3ccccc23)C(=O)N1C (stereo partly drawn) [Example 9031] ({CH2CO}-Y[NMeA]NPHLPWS[Bta][NMeNle][NMeNle]R[ξC]S-NH2; thioether N-14)
			0.763	5.75	4.97		CCCC[C@H]1C(=O)N([13CH3])[C@@H](CCCC)C(=O)N[C@@H](CCCNC(=N)N)C(=O)N[C@H](C(=O)NCC(N)=O)CSCC(=O)N[C@@H](Cc2ccc(O)cc2)C(=O)N([13CH3])[C@@H](C)C(=O)N[C@@H](CC(N)=O)C(=O)N2CCC[C@H]2C(=O)N[C@@H](Cc2cnc[nH]2)C(=O)N[C@@H](CC(C)C)C(=O)N2CCC[C@H]2C(=O)N[C@@H](Cc2c[nH]c3ccccc23)C(=O)N[C@@H](CO)C(=O)N[C@@H](Cc2csc3ccccc23)C(=O)N1[13CH3] [Example 6035]
			1.16	2.3	7.43		CCCC[C@H]1C(=O)N(C)[C@@H](CCCC)C(=O)N[C@@H](CCCNC(=N)N)C(=O)N[C@H](C(=O)NCC(N)=O)CSCC(=O)N[C@@H](Cc2ccc(O)cc2)C(=O)N(C)[C@@H](C)C(=O)N[C@@H](CCN)C(=O)N2CCC[C@H]2C(=O)N[C@@H](Cc2cnc[nH]2)C(=O)N[C@@H](CCC(=O)O)C(=O)N2C[C@H](O)C[C@H]2C(=O)N[C@@H](Cc2c[nH]c3ccccc23)C(=O)N[C@@H](CO)C(=O)N[C@@H](Cc2c[nH]c3ccccc23)C(=O)N1C [Example 5025] ({CH2CO}-Y[NMeA][Dab]PHE[Hyp]WSW[NMeNle][NMeNle]RCG-NH2; thioether N-14)
0.948	34.4	3.47					CCCC[C@H]1C(=O)N[C@@H](CCCNC(=N)N)C(=O)NC(C(=O)NCC(N)=O)CSCC(=O)N[C@@H](Cc2ccc(O)cc2)C(=O)N(C)[C@@H](C)C(=O)N[C@@H](CC(N)=O)C(=O)N2CCC[C@H]2C(=O)N[C@@H](Cc2cnc[nH]2)C(=O)N[C@@H](CC(C)C)C(=O)N2C[C@H](O)C[C@H]2C(=O)N[C@@H](Cc2c[nH]c3ccccc23)C(=O)N[C@@H](CO)C(=O)N[C@@H](Cc2c[nH]c3ccccc23)C(=O)N(C)[C@@H](CCSC)C(=O)N1C (stereo partly drawn) [Example 9026]
						IC50 ([1]; cell line of CBA not given (LK35.2-hPD-L1 or 293T-hPD-L1), read-out: CBA IC50 value): 4.04 nM; EC50 (CMV-specific T cells; read-out: CMV Recall EC50 value): 2.93 nM; IC50 (Human PD-L1/PD-1; read-out: HTRF IC50 value): 6.24 nM	CCCC[C@H]1C(=O)N(C)[C@@H](CCCC)C(=O)N[C@@H](CN)C(=O)N[C@H](C(=O)NCC(N)=O)CSCC(=O)N[C@@H](Cc2ccc(O)cc2)C(=O)N(C)[C@@H](C)C(=O)N[C@@H](CC(=O)O)C(=O)N2CCC[C@H]2C(=O)N[C@@H](CN)C(=O)N[C@@H](CC(C)C)C(=O)N2C[C@H](O)C[C@H]2C(=O)N[C@@H](Cc2c[nH]c3ccccc23)C(=O)N[C@@H](CO)C(=O)N[C@@H](Cc2csc3ccccc23)C(=O)N1C [Example 1163] ({CH2CO}-Y[NMeA]DP[Dap]L[Hyp]WS[Bta][NMeNle][NMeNle][Dap]CG-NH2; thioether N-14)

— patent publication US9850283B2, “Macrocyclic inhibitors of the PD-1/PD-L1 and CD80(B7-1)/PD-L1 protein/protein interactions” (BRISTOL-MYERS SQUIBB COMPANY, priority 2013, dated 2017)
